Measured values from the kinase profiling compilation of Christmann-Franck et al. (2016).

Legend:
Assay in all cases: radiometric filter-binding kinase assay, Kinase HotSpot
Conditions in all cases: compound 0.5 µM; ATP 10 µM
[1] = biological target: NEK7 (human) (UniProt Q8TDX7)
[2] = biological target: PRKCZ (human) (UniProt Q05513)
[3] = biological target: CDK4 CCND3 (human) (UniProt P30281+P11802)
[4] = biological target: CAMK2D (human) (UniProt Q13557)
[5] = biological target: MARK4 (human) (UniProt Q96L34)
[6] = biological target: TYRO3 (human) (UniProt Q06418)
[7] = biological target: MELK (human) (UniProt Q14680)
MELK (human), sequence (Q14680 whole entry, looked up): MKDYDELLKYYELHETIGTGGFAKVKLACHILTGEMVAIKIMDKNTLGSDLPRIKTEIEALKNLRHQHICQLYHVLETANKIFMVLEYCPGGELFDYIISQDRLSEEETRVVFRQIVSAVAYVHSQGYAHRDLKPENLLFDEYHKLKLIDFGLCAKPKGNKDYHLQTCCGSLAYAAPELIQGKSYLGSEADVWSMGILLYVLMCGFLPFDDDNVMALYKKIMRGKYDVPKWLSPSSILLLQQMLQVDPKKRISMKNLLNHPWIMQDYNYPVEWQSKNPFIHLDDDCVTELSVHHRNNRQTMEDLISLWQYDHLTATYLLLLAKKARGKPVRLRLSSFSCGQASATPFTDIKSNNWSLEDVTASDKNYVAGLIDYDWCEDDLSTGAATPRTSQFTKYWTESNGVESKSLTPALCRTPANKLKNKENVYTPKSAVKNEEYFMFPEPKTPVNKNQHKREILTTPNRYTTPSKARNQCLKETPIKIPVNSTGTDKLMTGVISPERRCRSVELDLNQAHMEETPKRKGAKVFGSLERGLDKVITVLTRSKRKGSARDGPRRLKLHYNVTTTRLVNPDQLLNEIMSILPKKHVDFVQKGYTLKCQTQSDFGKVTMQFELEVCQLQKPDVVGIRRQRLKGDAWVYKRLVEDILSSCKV

[8] = biological target: FGFR4 (human) (UniProt P22455)
[9] = biological target: PIM2 (human) (UniProt Q9P1W9)
[10] = biological target: MAPK1 (human) (UniProt P28482)
[11] = biological target: TEC (human) (UniProt P42680)
[12] = biological target: EPHA3 (human) (UniProt P29320)
[13] = biological target: HIPK3 (human) (UniProt Q9H422)
HIPK3 (human), sequence (Q9H422 whole entry, looked up): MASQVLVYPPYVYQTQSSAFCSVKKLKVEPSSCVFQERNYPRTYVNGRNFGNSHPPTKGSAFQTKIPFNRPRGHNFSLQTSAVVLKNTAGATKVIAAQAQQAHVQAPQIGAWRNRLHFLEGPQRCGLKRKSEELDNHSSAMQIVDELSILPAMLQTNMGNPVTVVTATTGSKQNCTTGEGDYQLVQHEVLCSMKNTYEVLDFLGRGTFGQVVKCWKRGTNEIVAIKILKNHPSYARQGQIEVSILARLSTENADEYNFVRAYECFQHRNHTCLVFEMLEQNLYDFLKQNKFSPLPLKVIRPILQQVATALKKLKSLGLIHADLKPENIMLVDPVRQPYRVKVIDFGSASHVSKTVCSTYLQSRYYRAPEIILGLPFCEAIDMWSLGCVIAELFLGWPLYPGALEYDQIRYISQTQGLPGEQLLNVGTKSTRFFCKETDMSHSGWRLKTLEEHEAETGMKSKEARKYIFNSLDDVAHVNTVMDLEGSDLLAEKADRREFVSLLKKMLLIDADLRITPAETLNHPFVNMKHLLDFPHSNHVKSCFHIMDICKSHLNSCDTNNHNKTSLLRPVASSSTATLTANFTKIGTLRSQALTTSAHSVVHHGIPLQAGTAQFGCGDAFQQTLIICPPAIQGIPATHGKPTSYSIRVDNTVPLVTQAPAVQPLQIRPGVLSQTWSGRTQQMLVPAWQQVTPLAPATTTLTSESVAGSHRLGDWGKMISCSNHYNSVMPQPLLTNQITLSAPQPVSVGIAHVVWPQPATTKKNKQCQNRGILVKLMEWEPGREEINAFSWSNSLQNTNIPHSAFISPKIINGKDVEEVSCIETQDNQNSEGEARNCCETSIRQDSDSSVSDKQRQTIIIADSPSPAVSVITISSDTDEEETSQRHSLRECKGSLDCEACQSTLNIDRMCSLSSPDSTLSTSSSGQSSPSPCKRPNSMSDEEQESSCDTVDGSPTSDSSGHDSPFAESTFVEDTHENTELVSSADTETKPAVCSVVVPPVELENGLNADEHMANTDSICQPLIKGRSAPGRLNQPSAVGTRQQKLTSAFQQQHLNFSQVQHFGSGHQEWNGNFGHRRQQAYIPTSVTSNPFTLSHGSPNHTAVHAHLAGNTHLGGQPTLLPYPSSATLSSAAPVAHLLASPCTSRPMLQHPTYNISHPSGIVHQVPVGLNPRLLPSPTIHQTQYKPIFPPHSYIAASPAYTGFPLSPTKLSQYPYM

[14] = biological target: ULK1 (human) (UniProt O75385)
ULK1 (human), sequence (O75385 whole entry, looked up): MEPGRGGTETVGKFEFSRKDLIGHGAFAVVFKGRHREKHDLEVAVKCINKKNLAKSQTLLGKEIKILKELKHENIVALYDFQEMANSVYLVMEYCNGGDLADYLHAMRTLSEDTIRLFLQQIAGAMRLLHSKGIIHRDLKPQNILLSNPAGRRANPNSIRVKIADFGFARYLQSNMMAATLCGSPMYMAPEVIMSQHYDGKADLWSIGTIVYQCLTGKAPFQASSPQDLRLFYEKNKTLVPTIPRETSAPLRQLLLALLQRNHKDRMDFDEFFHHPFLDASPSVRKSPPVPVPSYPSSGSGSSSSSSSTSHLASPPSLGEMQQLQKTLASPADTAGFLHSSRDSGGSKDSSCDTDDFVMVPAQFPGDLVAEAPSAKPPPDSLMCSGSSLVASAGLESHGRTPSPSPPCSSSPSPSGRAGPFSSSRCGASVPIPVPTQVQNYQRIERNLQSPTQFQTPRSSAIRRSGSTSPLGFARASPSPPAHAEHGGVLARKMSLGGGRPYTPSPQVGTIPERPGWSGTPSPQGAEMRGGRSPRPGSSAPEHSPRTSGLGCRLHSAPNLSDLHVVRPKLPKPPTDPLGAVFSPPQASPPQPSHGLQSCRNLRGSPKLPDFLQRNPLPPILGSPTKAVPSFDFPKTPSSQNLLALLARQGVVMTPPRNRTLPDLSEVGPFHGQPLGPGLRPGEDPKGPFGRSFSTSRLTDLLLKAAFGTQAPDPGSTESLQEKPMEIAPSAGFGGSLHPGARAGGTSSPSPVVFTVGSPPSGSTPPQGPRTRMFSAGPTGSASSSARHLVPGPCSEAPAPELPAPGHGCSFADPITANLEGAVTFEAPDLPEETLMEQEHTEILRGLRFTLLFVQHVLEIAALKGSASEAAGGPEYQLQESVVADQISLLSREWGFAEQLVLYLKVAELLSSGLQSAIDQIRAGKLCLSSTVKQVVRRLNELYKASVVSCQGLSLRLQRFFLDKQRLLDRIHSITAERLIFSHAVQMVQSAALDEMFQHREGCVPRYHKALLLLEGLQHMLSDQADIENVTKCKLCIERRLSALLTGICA

[15] = biological target: CHEK1 (human) (UniProt O14757)
[16] = biological target: RPS6KA2 KD1 KD2 (human) (UniProt Q15349)
[17] = biological target: TSSK2 (human) (UniProt Q96PF2)
[18] = biological target: NEK3 (human) (UniProt P51956)
[19] = biological target: MAP3K8 (human) (UniProt P41279)
[20] = biological target: CDK9 CCNK (human) (UniProt O75909+P50750)
[21] = biological target: CDK5 CDK5R1 p25 (human) (UniProt Q00535+Q15078)
CDK5 CDK5R1 p25 (human), sequence (Q00535 whole entry, looked up): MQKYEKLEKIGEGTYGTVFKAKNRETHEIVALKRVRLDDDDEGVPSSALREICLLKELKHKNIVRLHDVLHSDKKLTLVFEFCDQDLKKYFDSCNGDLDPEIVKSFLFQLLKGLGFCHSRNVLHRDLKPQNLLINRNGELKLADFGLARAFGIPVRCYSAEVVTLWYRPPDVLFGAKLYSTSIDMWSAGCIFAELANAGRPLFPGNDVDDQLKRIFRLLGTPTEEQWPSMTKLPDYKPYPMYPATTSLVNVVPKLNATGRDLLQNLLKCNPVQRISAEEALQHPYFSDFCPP
CDK5 CDK5R1 p25 (human), sequence (Q15078 whole entry, looked up): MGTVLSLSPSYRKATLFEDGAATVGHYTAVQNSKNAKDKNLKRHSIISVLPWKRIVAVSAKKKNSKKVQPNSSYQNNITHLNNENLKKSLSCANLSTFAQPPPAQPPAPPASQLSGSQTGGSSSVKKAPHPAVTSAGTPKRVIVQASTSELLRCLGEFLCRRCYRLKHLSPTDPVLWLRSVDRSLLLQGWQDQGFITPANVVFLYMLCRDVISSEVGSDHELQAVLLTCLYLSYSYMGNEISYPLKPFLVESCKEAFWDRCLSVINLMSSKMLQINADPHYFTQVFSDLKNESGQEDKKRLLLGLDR

[22] = biological target: CDK2 CCNA2 (human) (UniProt P24941+P20248)
[23] = biological target: CHUK (human) (UniProt O15111)
[24] = biological target: PNCK (human) (UniProt Q6P2M8)
[25] = biological target: MATK (human) (UniProt P42679)
[26] = biological target: TAOK1 (human) (UniProt Q7L7X3)
[27] = biological target: PRKD3 (human) (UniProt O94806)
[28] = biological target: FRK (human) (UniProt P42685)
FRK (human), sequence (P42685 whole entry, looked up): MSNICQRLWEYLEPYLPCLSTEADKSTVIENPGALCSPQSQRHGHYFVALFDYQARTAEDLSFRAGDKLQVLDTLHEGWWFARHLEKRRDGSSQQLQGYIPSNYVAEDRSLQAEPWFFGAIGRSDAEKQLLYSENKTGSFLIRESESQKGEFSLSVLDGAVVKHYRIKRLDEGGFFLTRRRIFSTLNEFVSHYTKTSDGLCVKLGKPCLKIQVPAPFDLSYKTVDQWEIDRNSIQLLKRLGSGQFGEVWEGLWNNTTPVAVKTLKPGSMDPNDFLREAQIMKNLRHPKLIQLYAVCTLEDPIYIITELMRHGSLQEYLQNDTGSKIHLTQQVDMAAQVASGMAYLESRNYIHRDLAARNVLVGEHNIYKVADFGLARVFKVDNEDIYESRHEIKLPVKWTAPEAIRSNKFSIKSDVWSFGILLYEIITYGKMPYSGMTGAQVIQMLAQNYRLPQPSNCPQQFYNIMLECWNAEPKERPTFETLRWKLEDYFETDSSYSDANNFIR

[29] = biological target: CSNK1E (human) (UniProt P49674)
[30] = biological target: CDK2 CCNE1 (human) (UniProt P24941+P24864)
[31] = biological target: CHEK2 (human) (UniProt O96017)
[32] = biological target: FER (human) (UniProt P16591)
[33] = biological target: MAPK8 (human) (UniProt P45983)
[34] = biological target: TXK (human) (UniProt P42681)
[35] = biological target: RIPK2 (human) (UniProt O43353)
[36] = biological target: BLK (human) (UniProt P51451)
[37] = biological target: PBK (human) (UniProt Q96KB5)
[38] = biological target: TTK (human) (UniProt P33981)
[39] = biological target: RPS6KA3 KD1 KD2 (human) (UniProt P51812)
[40] = biological target: KIT (human) (UniProt P10721)
KIT (human), sequence (P10721 whole entry, looked up): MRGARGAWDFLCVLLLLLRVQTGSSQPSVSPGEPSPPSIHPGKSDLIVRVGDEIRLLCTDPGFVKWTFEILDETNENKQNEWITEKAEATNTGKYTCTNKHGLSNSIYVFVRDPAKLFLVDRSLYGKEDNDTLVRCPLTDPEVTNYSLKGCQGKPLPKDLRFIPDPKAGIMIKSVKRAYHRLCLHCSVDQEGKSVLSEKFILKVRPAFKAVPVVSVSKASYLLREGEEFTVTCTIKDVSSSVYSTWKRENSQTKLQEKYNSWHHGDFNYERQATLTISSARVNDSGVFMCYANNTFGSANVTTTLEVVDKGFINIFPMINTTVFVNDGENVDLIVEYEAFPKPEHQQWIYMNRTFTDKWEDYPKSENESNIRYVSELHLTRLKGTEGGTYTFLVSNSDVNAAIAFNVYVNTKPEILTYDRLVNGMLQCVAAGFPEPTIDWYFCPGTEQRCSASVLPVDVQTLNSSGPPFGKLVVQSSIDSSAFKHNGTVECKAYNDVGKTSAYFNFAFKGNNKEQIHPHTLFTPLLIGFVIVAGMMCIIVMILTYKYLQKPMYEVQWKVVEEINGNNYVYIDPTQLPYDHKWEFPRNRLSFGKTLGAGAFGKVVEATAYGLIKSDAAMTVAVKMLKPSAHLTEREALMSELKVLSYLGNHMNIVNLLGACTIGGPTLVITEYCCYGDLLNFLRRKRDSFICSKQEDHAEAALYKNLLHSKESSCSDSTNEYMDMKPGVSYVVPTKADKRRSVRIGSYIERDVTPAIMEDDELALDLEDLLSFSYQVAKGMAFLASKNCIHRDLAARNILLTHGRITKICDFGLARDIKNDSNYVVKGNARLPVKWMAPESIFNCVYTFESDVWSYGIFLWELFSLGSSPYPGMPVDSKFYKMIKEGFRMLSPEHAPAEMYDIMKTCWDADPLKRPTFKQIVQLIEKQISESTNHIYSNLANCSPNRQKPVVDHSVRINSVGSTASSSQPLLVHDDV

[41] = biological target: MAP4K2 (human) (UniProt Q12851)

Nc1ccc2ncnc(NCCc3ccc(Oc4ccccc4)cc3)c2c1
residual activity [1]: 96%
residual activity [2]: 96%
residual activity [3]: 109%
residual activity [4]: 98.9%
residual activity [5]: 105%
residual activity [6]: 101%
residual activity [7]: 96.8%
residual activity [8]: 104%
residual activity [9]: 119%
residual activity [10]: 90.1%
residual activity [11]: 88.3%
residual activity [12]: 102%
residual activity [13]: 98.6%
residual activity [14]: 105%
residual activity [15]: 101%
residual activity [16]: 100%
residual activity [17]: 94.5%
residual activity [18]: 108%
residual activity [19]: 97.2%
residual activity [20]: 104%
residual activity [21]: 90.6%
residual activity [22]: 95.8%
residual activity [23]: 101%
residual activity [24]: 98.5%
residual activity [25]: 89.6%
residual activity [26]: 84.2%
residual activity [27]: 98.1%
residual activity [28]: 100%
residual activity [29]: 148%
residual activity [30]: 95%
residual activity [31]: 91.7%
residual activity [32]: 99.5%
residual activity [33]: 104%
residual activity [34]: 102%
residual activity [35]: 94.6%
residual activity [36]: 97.1%
residual activity [37]: 98.2%
residual activity [38]: 97.6%
residual activity [39]: 101%
residual activity [40]: 99.7%
residual activity [41]: 100%

O=C1NC(=O)/C(=C/c2ccc3c(c2)OC(F)(F)O3)S1
residual activity [1]: 105%
residual activity [2]: 103%
residual activity [3]: 98.2%
residual activity [4]: 97.1%
residual activity [5]: 97.8%
residual activity [6]: 99.6%
residual activity [7]: 94.4%
residual activity [8]: 91%
residual activity [9]: 91.9%
residual activity [10]: 85.7%
residual activity [11]: 108%
residual activity [12]: 97.6%
residual activity [13]: 90.1%
residual activity [14]: 100%
residual activity [15]: 101%
residual activity [16]: 97.3%
residual activity [17]: 101%
residual activity [18]: 92.6%
residual activity [19]: 93%
residual activity [20]: 93.5%
residual activity [21]: 89.7%
residual activity [22]: 107%
residual activity [23]: 88.4%
residual activity [24]: 96%
residual activity [25]: 93.2%
residual activity [26]: 90%
residual activity [27]: 91.4%
residual activity [28]: 93.4%
residual activity [29]: 96.9%
residual activity [30]: 89.9%
residual activity [31]: 97.9%
residual activity [32]: 97.2%
residual activity [33]: 95.1%
residual activity [34]: 95.4%
residual activity [35]: 88.2%
residual activity [36]: 99.2%
residual activity [37]: 91.8%
residual activity [38]: 102%
residual activity [39]: 103%
residual activity [40]: 93.4%
residual activity [41]: 90.7%

CC#CC(=O)Nc1cc2c(Nc3ccc(F)c(Cl)c3)ncnc2cn1
residual activity [1]: 98.2%
residual activity [2]: 114%
residual activity [3]: 105%
residual activity [4]: 100%
residual activity [5]: 101%
residual activity [6]: 100%
residual activity [7]: 101%
residual activity [8]: 102%
residual activity [9]: 111%
residual activity [10]: 101%
residual activity [11]: 52.1%
residual activity [12]: 99.8%
residual activity [13]: 92.9%
residual activity [14]: 96.6%
residual activity [15]: 106%
residual activity [16]: 105%
residual activity [17]: 100%
residual activity [18]: 76.2%
residual activity [19]: 94.2%
residual activity [20]: 98.4%
residual activity [21]: 99.2%
residual activity [22]: 97.8%
residual activity [23]: 92.1%
residual activity [24]: 99.4%
residual activity [25]: 95.8%
residual activity [26]: 104%
residual activity [27]: 103%
residual activity [28]: 102%
residual activity [29]: 93.6%
residual activity [30]: 98.1%
residual activity [31]: 98.8%
residual activity [32]: 98.2%
residual activity [33]: 98.9%
residual activity [34]: 1.66%
residual activity [35]: 38.7%
residual activity [36]: 21.3%
residual activity [37]: 99.9%
residual activity [38]: 104%
residual activity [39]: 97.5%
residual activity [40]: 98.5%
residual activity [41]: 114%

CCC(=O)Nc1ccc2ncnc(Nc3cccc(Br)c3)c2c1
residual activity [1]: 92.7%
residual activity [2]: 95.7%
residual activity [3]: 90.4%
residual activity [4]: 113%
residual activity [5]: 80.2%
residual activity [6]: 101%
residual activity [7]: 93.4%
residual activity [8]: 95.2%
residual activity [9]: 90.3%
residual activity [10]: 77.7%
residual activity [11]: 103%
residual activity [12]: 106%
residual activity [13]: 92.1%
residual activity [14]: 103%
residual activity [15]: 114%
residual activity [16]: 87.2%
residual activity [17]: 82.8%
residual activity [18]: 99.6%
residual activity [19]: 93%
residual activity [20]: 94.1%
residual activity [21]: 78.4%
residual activity [22]: 95.1%
residual activity [23]: 99.3%
residual activity [24]: 96%
residual activity [25]: 93.4%
residual activity [26]: 79.1%
residual activity [27]: 85.9%
residual activity [28]: 66.8%
residual activity [29]: 98.2%
residual activity [30]: 84.9%
residual activity [31]: 87.1%
residual activity [32]: 95.6%
residual activity [33]: 73.7%
residual activity [34]: 90.5%
residual activity [35]: 71.4%
residual activity [36]: 90.7%
residual activity [37]: 96.2%
residual activity [38]: 113%
residual activity [39]: 95%
residual activity [40]: 90.4%
residual activity [41]: 90.5%
